In brackets after ≈: the same amount, converted by molar mass. Read-outs that look alike come from different tables or passages of the source.
Tests used:
[1] = tested on: M. mycetomatis genome strain MM55; assay: CLSI M38-A2 based in vitro susceptibility screening (XTT or resazurin), growth at fixed concentration; type: cell-based, Madurella mycetomatis; conditions: Madurella mycetomatis; for Percent fungal survival at 100 µM: replicate 2, M. mycetomatis MM55, read-out: Percentage survival at 100um, 100 uM A (second replicate column)
[2] = tested on: M. mycetomatis MM55; assay: IC50 determination, 2-fold dilution series 16 to 0.03125 μM; type: cell-based, Madurella mycetomatis; conditions: for Drug static or cidal: M. mycetomatis; for IC90 / IC50: Madurella mycetomatis
[3] = tested on: ten different M. mycetomatis isolates; assay: MIC / MIC50 determination (XTT) in ten M. mycetomatis isolates; type: cell-based, Madurella mycetomatis; conditions: Madurella mycetomatis
[4] = tested on: M. mycetomatis isolate MM55; assay: M. mycetomatis grain infection model in G. mellonella larvae, survival; type: in vivo, Galleria mellonella; set-up: In vivo efficacy, Larvae survival %: concentration or dose not given beside the values; conditions: G. mellonella larvae infected with M. mycetomatis
[5] = mean of three, M. mycetomatis MM55, read-out: Percentage survival at 25um, 25 uM mean
[6] = replicate A, M. mycetomatis MM55, read-out: Percentage survival at 25um, 25 um A
[7] = replicate B, M. mycetomatis MM55, read-out: Percentage survival at 25um, 25 uM B
[8] = replicate C, M. mycetomatis MM55, read-out: Percentage survival at 25um, 25 uM C
[9] = mean of three, M. mycetomatis MM55, read-out: Percentage survival at 100um, 100 uM mean
[10] = replicate 1, M. mycetomatis MM55, read-out: Percentage survival at 100um, 100 uM A (first replicate column)
[11] = replicate 3, M. mycetomatis MM55, read-out: Percentage survival at 100um, 100 uM A (third replicate column)
[12] = MM55, mean of replicates, read-out: IC90 mean
[13] = MM55, replicate 1, read-out: IC90 1 um
[14] = MM55, replicate 2, read-out: IC90 2 um
[15] = MM55, replicate 3, read-out: IC90 3 um
[16] = over the tested M. mycetomatis isolates, read-out: MIC50 mean
[17] = isolate CBS247.48, read-out: MIC CBS247.48
[18] = isolate MM55, read-out: MIC MM55
[19] = isolate ParijsAl1, read-out: MIC ParijsAl1
[20] = isolate Peru72012, read-out: MIC Peru72012
[21] = MM55, Table 2, M. mycetomatis MM55, read-out: IC50
[22] = MM55, replicate 1, read-out: IC50 1 um
[23] = MM55, replicate 2, read-out: IC50 2 um
[24] = MM55, replicate 3, read-out: IC50 3 um
[25] = median MIC over ten M. mycetomatis isolates, no asterisk, read-out: MIC50
[26] = isolate MM14, read-out: MIC MM14
[27] = isolate MM45, read-out: MIC MM45

| Structure (SMILES) | activity at 25 µM [1, 5] [%] | activity at 25 µM [1, 6] [%] | activity at 25 µM [1, 7] [%] | activity at 25 µM [1, 8] [%] | activity at 100 µM [1, 9] [%] | activity at 100 µM [1, 10] [%] | Percent fungal survival at 100 µM [1] [%] | activity at 100 µM [1, 11] [%] | Drug static or cidal [2] | IC90 [2, 12] [µM] | IC90 [2, 13] [µM] | IC90 [2, 14] [µM] | IC90 [2, 15] [µM] | MIC50 [3, 16] [µM] | MIC [3, 17] [µM] | MIC [3, 18] [µM] | MIC ([3]; isolate P1, read-out: MIC P1) [µM] | MIC [3, 19] [µM] | MIC [3, 20] [µM] | MIC ([3]; isolate So1, read-out: MIC So1) [µM] | also measured |
| --- | --- | --- | --- | --- | --- | --- | --- | --- | --- | --- | --- | --- | --- | --- | --- | --- | --- | --- | --- | --- | --- |
| Clc1ccc(COC(Cn2ccnc2)c2ccc(Cl)cc2Cl)c(Cl)c1 (stereo not shown) [MMV002722] | 1.83 | 0.653 | 1.37 | 3.48 | 8.62 | 1.56 | 6.95 | 17.4 | Cidal | 1.23 | 0.75 | 2.6 | 0.34 | 0.125 (≈ 0.052 µg/mL) | 0.125 (≈ 0.052 µg/mL) | 0.25 (≈ 0.104 µg/mL) | 0.06 (≈ 0.025 µg/mL) | > 0.03 | 0.06 (≈ 0.025 µg/mL) | 0.125 (≈ 0.052 µg/mL) | MIC ([3]; isolate i1, read-out: MIC i1): > 0.03 µM; MIC ([3]; isolate i11, read-out: MIC i11): 0.5 µM (≈ 0.208 µg/mL); In vivo efficacy, Enhanced survival compared to control? [4]: no; In vivo efficacy, Larvae survival % [4]: 8.9% |
| CCCCC(CC)CNC(=N)NC(=N)NCCCCCCNC(=N)NC(=N)NCC(CC)CCCC (stereo not shown) [MMV396785, Alexidine, reference compound] | 1.02 | -0.617 | 1.64 | 2.05 | 7.33 | -1.99 | 7.87 | 16.1 | Static | 4.26 | 3.95 | 4.4 | 4.42 | 2 (≈ 1.02 µg/mL) | 1 (≈ 0.509 µg/mL) | 2 (≈ 1.02 µg/mL) | 2 (≈ 1.02 µg/mL) | 4 (≈ 2.04 µg/mL) | 4 (≈ 2.04 µg/mL) | 2 (≈ 1.02 µg/mL) | IC50 [2, 21]: 2.56 µM; IC50 ([2]; MM55, mean of replicates, read-out: IC50 mean): 2.56 µM; IC50 [2, 22]: 2.16 µM; IC50 [2, 23]: 2.7 µM; IC50 [2, 24]: 2.83 µM; MIC50 [3, 25]: 2 µM (≈ 1.02 µg/mL); MIC [3, 26]: 2 µM (≈ 1.02 µg/mL); MIC [3, 27]: 2 µM (≈ 1.02 µg/mL); MIC ([3]; isolate i1, read-out: MIC i1): 2 µM (≈ 1.02 µg/mL); MIC ([3]; isolate i11, read-out: MIC i11): 2 µM (≈ 1.02 µg/mL); In vivo efficacy, Enhanced survival compared to control? [4]: no; In vivo efficacy, Larvae survival % [4]: 2.2% |
| O=S(=O)(Nc1ccc(-n2cccc2)cc1)c1ccc(Cl)c(Cl)c1 [MMV1505642] | 0.829 | -1.91 | 1.17 | 3.22 | 1.07 | -0.332 | -0.607 | 4.16 | Cidal | 21.8 | 20.3 | 22.6 | 22.6 | 16 (≈ 5.88 µg/mL) | > 16 | 16 (≈ 5.88 µg/mL) | 16 (≈ 5.88 µg/mL) | > 16 | 16 (≈ 5.88 µg/mL) | > 16 | IC50 [2, 21]: 7.35 µM; IC50 [2, 22]: 3.55 µM; IC50 [2, 23]: 8.05 µM; IC50 [2, 24]: 10.5 µM; MIC50 [3, 25]: 16 µM (≈ 5.88 µg/mL); MIC [3, 26]: 16 µM (≈ 5.88 µg/mL); MIC [3, 27]: 8 µM (≈ 2.94 µg/mL); MIC ([3]; isolate i1, read-out: MIC i1): 16 µM (≈ 5.88 µg/mL); MIC ([3]; isolate i11, read-out: MIC i11): 16 µM (≈ 5.88 µg/mL) |
